Measurements: patent US20230037188A1, “TASTEFUL NATURAL SWEETENER AND FLAVOR” (EPC Natural Products Co., Ltd., priority 2018, published 2023)
“Also recorded” adds a separate entry of the source.

Tests used:
[1] = Assay to test DPPH radical-scavenging activity; settings: combinations of amino acids and Reb-A, 100° C., pH 7.8; iron-III reduction and radical scavenging (FIGS. 49, 50)
Description: 1 mg 1,1-Diphenyl-2-picrylhydrazyl radical (DPPH)/ml ethanol, dilution to assay concentration were prepared in ethanol (40 μg/mL); Calibration samples were prepared with Ascorbic acid in a concentration of 0-10 μg/mL; as a negative control sample, water was used.
Samples in aqueous solution were used as such or diluted with water.
A 0.1 ml sample (or calibration standard) was mixed with 3.9 ml solution of DPPH° (100 μMolar) and reacted while protected from light at room temperature for 30 min. Absorbance was determined at 517 nm against ethanol.
10 mM of amino acid and/or 10 mM sugar were dissolved in 10 ml 0.1 mM KH2PO4-buffer, pH=7.8.
The samples were kept at 100° C. in sealed glass vials (Pyrex 15 ml with screw caps) for 0 (before reaction), 2.5 or 5.0 hours. Thereafter the samples were transferred to an ice water bath and cooled down to room temperature. These samples were diluted 1:10 and used for the test assay for anti-oxidant potential.

[2] = Kinetics of reaction (degradation of Phe with Reb-A, Gluc, Xyl, Suc) in dependence of pH-conditions, HPLC/MS; type: physicochemical; settings: for % formation from degraded Reb-A: reaction of Phe and Reb-A
Description: Quantitative evaluation was performed using external standardization.

[3] = Blind descriptive sensory evaluation by trained tasters of differently prepared Stevia-derived MRPs in beverages and ketchup; type: in vivo; settings: added before heating to xylose, phenylalanine and SGA; 150 μl sample per 100 ml
Description: Each sample was added at a concentration of 1500 ppm to freshly prepared lemon juice (squeezed lemons diluted 1:5 with tap water) containing 4% sugar.
Each sample was added at a concentration of 1000 ppm to Felix Ketchup no added sugar (31.12.2019 L8352, 11:48).
Before tasting the tasters discussed the upcoming series of samples and tasted samples with the predetermined attributes (sweetness) with varying intensities to find a common description. Four trained tasters blind taste tested independently all samples of a series. They were allowed to re-taste and prepared notes for sensory attributes perceived including the relative intensity.
In the last step the attributes noted were discussed openly to find an acceptable description. In case that more than 1 taster disagreed with the description, the tasting was repeated.
Before tasting the tasters discussed the upcoming series of samples and tasted samples with the predetermined attributes with varying intensities to find commonality for the description. Four trained tasters blind taste tested independently all samples of a series. They were allowed to re-taste and made notes for the sensory attributes perceived including the relative intensity.
In the last step the attributes noted were discussed openly to find an agreeable description. In case that more than 1 taster disagreed with thedescription, the tasting was repeated. […]

[4] = Sensory evaluation of combinations of EPCalin (Thaumatin), GSGs and SGs and NHDC in water; type: in vivo; settings: 4.5 ppm Thaumatin (10 ppm EPCalin) and/or 50 ppm GSGs and SGs, NHDC 1-5 ppm
Description: 4.5 ppm Thaumatin (equivalent to 10 ppm EPCalin) were dissolved in water. Increasing amounts of NHDC (1-5 ppm) were added to the solution and the sensory properties were evaluated.
50 ppm (GSGs and SGs) were dissolved in water. Increasing amounts of NHDC (1-5 ppm) were added to the solution and the sensory properties were evaluated.
50 ppm (GSGs and SGs) and 4.5 ppm Thaumatin (equivalent to 10 ppm EPCalin) were dissolved in water. Increasing amounts of NHDC (1-5 ppm) were added to the solution and the sensory properties were evaluated.
Sweetness intensity was rated on 5-point scale

C=C1C[C@@]23CC[C@H]4[C@@](C)(CCC[C@@]4(C)C(=O)O[C@@H]4O[C@H](CO)[C@@H](O)[C@H](O)[C@H]4O)[C@@H]2CC[C@]1(O[C@@H]1O[C@H](CO)[C@@H](O)[C@H](O[C@@H]2O[C@H](CO)[C@@H](O)[C@H](O)[C@H]2O)[C@H]1O[C@@H]1O[C@H](CO)[C@@H](O)[C@H](O)[C@H]1O)C3 [Reb-A, Rebaudioside A]
anti-oxidant properties [1]: substantial anti-oxidant properties

OC[C@H]1OC(O)[C@H](O)[C@@H](O)[C@@H]1O (stereo partly shown) [Glu]
% degradation ([2]; reaction of Phe and Gluc, pH = 7.0, 1.0 h, 120° C.): 4.6%

COc1ccc(CCC(=O)c2c(O)cc(O[C@@H]3O[C@H](CO)[C@@H](O)[C@H](O)[C@H]3O[C@@H]3O[C@@H](C)[C@H](O)[C@@H](O)[C@H]3O)cc2O)cc1O [NHDC, Neohesperidin dihydrochalcone]
taste profile in Redbull sugar free [3]: improved the mouth-feel and harmony of taste impression yielding a substantially improved taste profile
sweetness, onset, mouth-feel and lingering in words [4]: long lasting lingering; also recorded: boosts the lingering

C=C1C[C@@]23CC[C@H]4[C@@](C)(CCC[C@@]4(C)C(=O)O)[C@@H]2CC[C@]1(O[C@@H]1O[C@H](CO)[C@@H](O)[C@H](O[C@@H]2O[C@H](CO)[C@@H](O)[C@H](O)[C@H]2O)[C@H]1O[C@@H]1O[C@H](CO)[C@@H](O)[C@H](O)[C@H]1O)C3 [Reb-B]
% formation from degraded Reb-A ([2]; pH = 5.5): 23.1%
% formation from degraded Reb-A ([2]; pH = 7.0): 22.7%
% formation from degraded Reb-A ([2]; pH = 8.5): 19.1%
